Reference: paper PMC5232348, “Molecular and Functional Characterization of Three Odorant-Binding Protein from Periplaneta americana” (PLoS ONE, 2017)
Structures can show the parent of a compound that is named as a salt. Where two headings read alike, the source gives them in different places.

Experiments:
[1] = target: PameOBP1 (Periplaneta americana, UniProt B6E9U7); experiment: Competitive fluorescence binding assay (1-NPN displacement), recombinant PameOBP1
From the text: (§1) The PameOBPs were expressed by using Escherichia coli expression system. To generate properly folded protein, the signal peptide predicted by SignalIP 4.1 [18] was removed. The two PameOBPs were amplified by gene special primers (S1 Table) with the cDNA as the template. The purified PCR products were ligated into expression vector pGEX-4T-1 using In-Fusion® HD Cloning Kit (Clontech, Mountain View, CA) according to the manufacturer’s instructions. The recombinant plasmid was transformed into E. coli BL21 (DE3) cells, and then expression and purification was performed according to a previously reported protocol. Recombinant proteins in the supernatant were purified by an affinity chromatography column GSTrap FF (GE Healthcare, Piscataway, NJ, USA). The GST tags were cleaved from recombinant proteins using 400 μL of thrombin (1U/μL) while loaded on GSTrap FF column at 25°C for 10 h and allowed 12 h. After that, the recombinant proteins were eluted with PBS buffer. Finally, the eluted proteins were desalted using HiTrap Desalting (GE Healthcare), lyophilized, and stored at −80°C until use.
(§2) Emission fluorescence spectra were measured on a Hitachi F-4500 fluorescence spectrophotometer following our previous studies. Firstly, dissociation constants of the PameOBPs for N-phenyl-1-naphtylamine (1-NPN) were calculated to determine the suitability of 1-NPN as a fluorescence reporter. […] The binding data were analyzed following our previous studies.

[2] = target: PameOBP2 (Periplaneta americana, UniProt B6E9U8); experiment: Competitive fluorescence binding assay (1-NPN displacement), recombinant PameOBP2
From the text: as §1, §2

[3] = target: PameOBP3 (Periplaneta americana, UniProt B6E9U9); experiment: Competitive fluorescence binding assay (1-NPN displacement), recombinant PameOBP3
From the text: as §1, §2

[4] = 2 μM 1-NPN as fluorescent reporter, competitor 0.25–2.5 μM or 2–40 μM, read-out: PameOBP1 IC50
[5] = 2 μM 1-NPN as fluorescent reporter, competitor 0.25–2.5 μM or 2–40 μM, read-out: PameOBP1 Ki
[6] = 2 μM 1-NPN as fluorescent reporter, competitor 0.25–2.5 μM or 2–40 μM, read-out: PameOBP2 IC50
[7] = 2 μM 1-NPN as fluorescent reporter, competitor 0.25–2.5 μM or 2–40 μM, read-out: PameOBP2 Ki
[8] = 2 μM 1-NPN as fluorescent reporter, competitor 0.25–2.5 μM or 2–40 μM, read-out: PameOBP3 Ki
[9] = PameOBP1 Ki, 2 μM 1-NPN as fluorescent reporter, competitor 0.25–2.5 μM or 2–40 μM
[10] = PameOBP2 Ki, 2 μM 1-NPN as fluorescent reporter, competitor 0.25–2.5 μM or 2–40 μM

Chain of PameOBP2 (B6E9U8 entry or part of it): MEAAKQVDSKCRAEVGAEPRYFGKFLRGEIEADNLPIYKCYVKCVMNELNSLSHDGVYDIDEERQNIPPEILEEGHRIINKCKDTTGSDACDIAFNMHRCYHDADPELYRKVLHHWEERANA
Chain of PameOBP3 (B6E9U9 entry or part of it): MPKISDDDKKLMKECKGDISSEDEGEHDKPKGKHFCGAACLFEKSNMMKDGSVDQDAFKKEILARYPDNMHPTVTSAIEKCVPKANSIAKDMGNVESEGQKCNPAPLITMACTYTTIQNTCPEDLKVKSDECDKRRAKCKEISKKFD
Chain of PameOBP1 (B6E9U7 entry or part of it): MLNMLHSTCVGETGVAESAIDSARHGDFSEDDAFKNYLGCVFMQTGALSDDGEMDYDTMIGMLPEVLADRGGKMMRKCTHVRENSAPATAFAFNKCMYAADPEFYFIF

Compound	Ki [1, 5] [µM]	Ki [2, 7] [µM]	Ki [3, 8] [µM]	Ki [1, 9] [µM]	Ki [2, 10] [µM]	Ki [3] [µM]	other results
C=CC(C)(O)CCC=C(C)CCC=C(C)C (mixture of isomers) [Nerolidol]	> 40	26.6 ± 2.79	–	–	–	–	IC50 [1, 4]: > 40 µM; IC50 [2, 6]: 32.9 ± 4.21 µM
CCCCCCO [1-hexanol]	> 40	> 40	> 40	–	–	–	–
CCCCCCCCCCCC(C)=O [2-Tridecanone]	1.85 ± 0.17	1.23 ± 0.08	–	–	–	–	IC50 [1, 4]: 2.02 ± 0.16 µM; IC50 [2, 6]: 1.52 ± 0.16 µM
CCCCCC(C)O (centres unmarked) [2-heptanol]	> 40	> 40	> 40	–	–	–	–
CCCCCC(C)=O [2-heptanone]	> 40	> 40	> 40	–	–	–	–
CCCCC(C)=O [2-hexanone]	–	–	–	> 40	> 40	> 40	–
CCCCCCCCC(CO)CCCCCC (centres unmarked) [2-hexyl-1-decanol]	> 40	> 40	> 40	–	–	–	–
CCCCCCCCCCCCCC(C)=O [2-pentadecanone]	> 40	> 40	> 40	–	–	–	–
CCCC(O)CC (centres unmarked) [3-hexanol]	> 40	> 40	> 40	–	–	–	–
CCCC(=O)CC [3-hexanone]	> 40	> 40	> 40	–	–	–	–
CC(=O)CCC=C(C)C [6-methyl-5-hepten-2-one]	–	–	–	> 40	> 40	> 40	–
C[C@@H]1CC[C@H]2C(C)(C)[C@H]3C[C@@]12CC[C@@]3(C)O [(+)-cedrol]	–	–	–	> 40	> 40	> 40	–
CC(=O)/C=C/C1=C(C)CCCC1(C)C [Beta- ionone]	–	–	–	14.4 ± 1.6	12.2 ± 0.9	–	IC50 [1]: 15.8 ± 2.1 µM; IC50 [2]: 15 ± 1.1 µM
CC/C=C\CCO [Cis-3-hexenol]	–	–	–	> 40	> 40	> 40	–
CC/C=C\CCOC(=O)CCCCC [Cis-3-hexenyl hexanoate]	22.5 ± 2.6	> 40	–	–	–	–	IC50 [1, 4]: 24.6 ± 1.9 µM; IC50 [2, 6]: > 40 µM
CC(C)=CCC/C(C)=C/CC/C(C)=C/CO [Farnesol]	0.92 ± 0.06	0.53 ± 0.06	–	–	–	–	IC50 [1, 4]: 1.01 ± 0.09 µM; IC50 [2, 6]: 0.65 ± 0.07 µM

Compound	Ki [1, 5] [µM]	Ki [2, 7] [µM]	Ki [3, 8] [µM]	Ki [1, 9] [µM]	Ki [2, 10] [µM]	Ki [3] [µM]	other results
CC(=O)OC/C=C(\C)CCC=C(C)C [Geranyl acetate]	> 40	32.6 ± 2.95	–	–	–	–	IC50 [1, 4]: > 40 µM; IC50 [2, 6]: 40 ± 3.16 µM
CC(=O)CC/C=C(\C)CCC=C(C)C [Geranylacetone]	> 40	6.97 ± 0.72	–	–	–	–	IC50 [1, 4]: > 40 µM; IC50 [2, 6]: 8.62 ± 0.68 µM
CCCCCCCCCCCCCC [Tetradecane]	–	0.96 ± 0.1	–	–	–	–	IC50 [1, 4]: > 40 µM; IC50 [2, 6]: 1.19 ± 0.09 µM
C=CC(C)(O)CC/C=C(\C)CCC=C(C)C (stereo not drawn) [Trans-nerolidol]	> 40	12.6 ± 0.98	–	–	–	–	IC50 [1, 4]: > 40 µM; IC50 [2, 6]: 15.6 ± 1.3 µM
CC(=O)c1ccccc1 [acetophenone]	> 40	> 40	> 40	–	–	–	–
CC1=CC[C@H](C(C)C)C=C1 [alpha-phellandrene]	–	–	–	> 40	> 40	> 40	–
O=Cc1ccccc1 [benzaldehyde]	–	–	–	> 40	> 40	> 40	–
CC(=O)OCc1ccccc1 [benzyl acetate]	> 40	> 40	> 40	–	–	–	–
OCc1ccccc1 [benzyl alcohol]	–	–	–	> 40	> 40	> 40	–
C=C1CC/C=C(\C)CC[C@@H]2[C@@H]1CC2(C)C [beta-caryophyllene]	–	–	–	> 40	> 40	> 40	–
CCCCOC(C)=O [butyl acetate]	–	–	–	> 40	> 40	> 40	–
CCCCOC=O [butyl formate]	> 40	> 40	> 40	–	–	–	–
C=C1C2CCC(C2)C1(C)C (centres unmarked) [camphene]	> 40	> 40	> 40	–	–	–	–
CCC/C=C\CO [cis-2-hexen-1-ol]	–	–	–	> 40	> 40	> 40	–
Farnesene	1.04 ± 0.1	0.52 ± 0.03	–	–	–	–	Ki ([1]; 2 μM 1-NPN as fluorescent reporter, competitor 0.25–2.5 μM or 2–40 μM, listed as farnesene, read-out: PameOBP1 Ki): < 2 µM; IC50 [1, 4]: 1.14 ± 0.12 µM; Ki ([2]; 2 μM 1-NPN as fluorescent reporter, competitor 0.25–2.5 μM or 2–40 μM, listed as farnesene, read-out: PameOBP2 Ki): < 2 µM; IC50 [2, 6]: 0.64 ± 0.08 µM
